Assay results taken from patent US9949945B2, “3′ equatorial-fluorine-substituted neuraminidase inhibitor compounds, compositions and methods for the use thereof as anti-virals” (THE UNIVERSITY OF BRITISH COLUMBIA, priority 2012, dated 2018).
pIC50: −log10 of the molar value. Like-named read-outs stand apart in the source and are kept apart here.

Legend:
Assay type in all cases: biochemical
[1] = target: B/Florida E119D (B/Florida/4/2006 mutant 1 E117D) NA (Influenza B virus, UniProt J7JZT1, E117D)
[2] = target: A/Fukui H3N2 E119V (oseltamivir-resistant) NA (Influenza A virus, UniProt A0A0F6NYK2, E119V); details: read-out: IC50 in the enzyme inhibition assay, A/Fukui H3N2 E119V
[3] = target: Sol Isl sH1N1 E119A (A/Solomon Islands/3/2006 mutant) NA (Influenza A virus, UniProt B4URD9, E119A)
[4] = target: sH1N1/01 H275Y (A/Mississippi/3/01 oseltamivir-resistant) NA (Influenza A virus, UniProt Q3M0T6, H275Y)

Oseltamivir
pIC50 [1]: 5.92 | pIC50 [2]: 6.59

Zanamivir
pIC50 [3]: < 5.00 | pIC50 ([4]; read-out: IC50 in the enzyme inhibition assay, A/Mississippi H1N1 H275Y): 8.66 | pIC50 ([4]; read-out: IC50 sH1N/01 H275Y): 8.66
